Measured values: the CheMixHub viscosity set
± gives the uncertainty stated by the source.

Test: xn = mol fraction of the nth substance listed

C1CCC2CCCCC2C1 (configuration not stated) + COC(C)(C)C
303.15 K, 101 kPa
Conditions	viscosity [mPa·s]
x2 = 0.1134	1.739
x2 = 0.184	1.547
x2 = 0.2577	1.367
x2 = 0.3906	1.089
x2 = 0.4774	0.935
x2 = 0.5234	0.863
x2 = 0.6441	0.694
x2 = 0.7771	0.543
x2 = 0.8937	0.431

C=CC(C)(O)CCC=C(C)C (configuration not stated) + COC(C)(C)C
298.15 K, 101.33 kPa
Conditions	viscosity [mPa·s]
x2 = 0.0756	3.692 ± 0.027
x2 = 0.1208	3.314 ± 0.024
x2 = 0.1819	2.856 ± 0.02
x2 = 0.3063	2.093 ± 0.015
x2 = 0.3763	1.761 ± 0.012
x2 = 0.5129	1.25 ± 0.0089
x2 = 0.5989	0.9982 ± 0.0074
x2 = 0.7222	0.7171 ± 0.0061
x2 = 0.8148	0.5569 ± 0.0054
x2 = 0.9106	0.4273 ± 0.0049
x2 = 0.9692	0.3605 ± 0.0047

O=[N+]([O-])c1ccccc1 + COC(C)(C)C
viscosity [mPa·s], 101.33 kPa
Conditions	x2 = 0.0921	x2 = 0.1852	x2 = 0.2942	x2 = 0.3906	x2 = 0.4845	x2 = 0.695	x2 = 0.7094	x2 = 0.8055	x2 = 0.9053
293.15 K	1.745 ± 0.18	1.535 ± 0.16	1.345 ± 0.14	1.096 ± 0.11	1.011 ± 0.1	0.7813 ± 0.079	0.659 ± 0.067	0.5509 ± 0.056	0.4676 ± 0.048
298.15 K	1.625 ± 0.16	1.402 ± 0.14	1.203 ± 0.12	0.9995 ± 0.1	0.8725 ± 0.088	–	0.6043 ± 0.061	0.507 ± 0.051	0.4335 ± 0.044

O=[N+]([O-])c1ccccc1 + COC(C)=O
viscosity [mPa·s], 101 kPa
Conditions	298.15 K	308.15 K
x2 = 0.0418	1.689 ± 0.01	1.459 ± 0.009
x2 = 0.1491	1.449 ± 0.009	1.261 ± 0.008
x2 = 0.2508	1.25 ± 0.008	1.095 ± 0.007
x2 = 0.3515	1.076 ± 0.007	0.949 ± 0.006
x2 = 0.4403	0.941 ± 0.006	0.834 ± 0.006
x2 = 0.4882	0.875 ± 0.006	0.777 ± 0.005
x2 = 0.5492	0.796 ± 0.006	0.71 ± 0.005
x2 = 0.649	0.681 ± 0.005	0.611 ± 0.005
x2 = 0.7499	0.58 ± 0.005	0.523 ± 0.004
x2 = 0.8513	0.492 ± 0.004	0.446 ± 0.004
x2 = 0.9379	0.426 ± 0.004	0.388 ± 0.004

ClC(Cl)=C(Cl)Cl + COCCO
viscosity [mPa·s], 101.33 kPa
Conditions	x1 = 0.1062	x1 = 0.2046	x1 = 0.3091	x1 = 0.4453	x1 = 0.5214	x1 = 0.6184	x1 = 0.7146	x1 = 0.8062	x1 = 0.9015
303.15 K	1.365 ± 0.036	1.273 ± 0.033	1.178 ± 0.031	1.066 ± 0.028	1.009 ± 0.027	0.943 ± 0.025	0.89 ± 0.024	0.846 ± 0.023	0.808 ± 0.022
313.15 K	1.111 ± 0.03	1.049 ± 0.028	0.985 ± 0.027	0.907 ± 0.025	0.866 ± 0.024	0.819 ± 0.022	0.778 ± 0.021	0.747 ± 0.021	0.727 ± 0.02

O=[N+]([O-])c1ccccc1 + COCCO
Conditions	viscosity [mPa·s]
298.15 K, 101 kPa, x1 = 0.0511	1.561 ± 0.012
298.15 K, 101 kPa, x1 = 0.101	1.58 ± 0.012
298.15 K, 101 kPa, x1 = 0.2028	1.624 ± 0.013
298.15 K, 101 kPa, x1 = 0.3038	1.673 ± 0.013
298.15 K, 101 kPa, x1 = 0.4004	1.72 ± 0.013
298.15 K, 101 kPa, x1 = 0.4502	1.743 ± 0.013
298.15 K, 101 kPa, x1 = 0.5003	1.764 ± 0.014
298.15 K, 101 kPa, x1 = 0.5524	1.785 ± 0.014
298.15 K, 101 kPa, x1 = 0.6001	1.801 ± 0.014
298.15 K, 101 kPa, x1 = 0.6981	1.829 ± 0.014
298.15 K, 101 kPa, x1 = 0.7856	1.847 ± 0.014
298.15 K, 101 kPa, x1 = 0.8931	1.85 ± 0.014
298.15 K, 101 kPa, x1 = 0.9407	1.839 ± 0.014
303.15 K, 101.33 kPa, x2 = 0.132	1.553 ± 0.019
303.15 K, 101.33 kPa, x2 = 0.2148	1.514 ± 0.019
303.15 K, 101.33 kPa, x2 = 0.2725	1.49 ± 0.018
303.15 K, 101.33 kPa, x2 = 0.3929	1.453 ± 0.018
303.15 K, 101.33 kPa, x2 = 0.5243	1.428 ± 0.018
303.15 K, 101.33 kPa, x2 = 0.5584	1.425 ± 0.018
303.15 K, 101.33 kPa, x2 = 0.7423	1.409 ± 0.017
303.15 K, 101.33 kPa, x2 = 0.8512	1.397 ± 0.017
303.15 K, 101.33 kPa, x2 = 0.9147	1.391 ± 0.017

CCCCCCCCCCCCCC + COc1ccccc1
viscosity [mPa·s], 101 kPa
Conditions	x1 = 0.1012	x1 = 0.2027	x1 = 0.3005	x1 = 0.3936	x1 = 0.4986	x1 = 0.6001	x1 = 0.6977	x1 = 0.7959	x1 = 0.8991
298.15 K	0.996 ± 0.095	1.035 ± 0.099	1.105 ± 0.1	1.241 ± 0.12	1.311 ± 0.12	1.38 ± 0.13	1.45 ± 0.13	1.521 ± 0.14	1.697 ± 0.15
303.15 K	0.916 ± 0.089	0.974 ± 0.093	1.004 ± 0.096	1.116 ± 0.11	1.21 ± 0.11	1.304 ± 0.12	1.398 ± 0.13	1.493 ± 0.14	1.587 ± 0.14
308.15 K	0.855 ± 0.084	0.907 ± 0.088	0.932 ± 0.09	1.028 ± 0.098	1.089 ± 0.1	1.149 ± 0.11	1.209 ± 0.11	1.27 ± 0.12	1.331 ± 0.12

ClC(Cl)=C(Cl)Cl + COc1ccccc1
303.15 K, 101.3 kPa
Conditions	viscosity [mPa·s]
x2 = 0.0193	0.793 ± 0.013
x2 = 0.039	0.79 ± 0.013
x2 = 0.0561	0.792 ± 0.013
x2 = 0.1158	0.781 ± 0.013
x2 = 0.189	0.776 ± 0.013
x2 = 0.2303	0.778 ± 0.013
x2 = 0.2742	0.783 ± 0.013
x2 = 0.3317	0.787 ± 0.013
x2 = 0.3643	0.79 ± 0.013
x2 = 0.4286	0.801 ± 0.013
x2 = 0.4726	0.812 ± 0.013
x2 = 0.6096	0.831 ± 0.013
x2 = 0.6829	0.848 ± 0.014
x2 = 0.7292	0.856 ± 0.014
x2 = 0.7745	0.862 ± 0.014
x2 = 0.8665	0.878 ± 0.014
x2 = 0.8991	0.885 ± 0.014
x2 = 0.9485	0.899 ± 0.014

O=[N+]([O-])c1ccccc1 + COc1ccccc1
Conditions	viscosity [mPa·s]
293.15 K, 101.33 kPa, x2 = 0.0982	1.864 ± 0.098
293.15 K, 101.33 kPa, x2 = 0.1946	1.72 ± 0.09
293.15 K, 101.33 kPa, x2 = 0.2868	1.597 ± 0.084
293.15 K, 101.33 kPa, x2 = 0.3929	1.478 ± 0.077
293.15 K, 101.33 kPa, x2 = 0.5767	1.407 ± 0.074
293.15 K, 101.33 kPa, x2 = 0.6086	1.289 ± 0.068
293.15 K, 101.33 kPa, x2 = 0.7073	1.23 ± 0.064
293.15 K, 101.33 kPa, x2 = 0.8086	1.167 ± 0.061
293.15 K, 101.33 kPa, x2 = 0.9081	1.117 ± 0.059
298.15 K, 101 kPa, x2 = 0.1	1.556 ± 0.041
298.15 K, 101 kPa, x2 = 0.2022	1.561 ± 0.04
298.15 K, 101 kPa, x2 = 0.3039	1.454 ± 0.038
298.15 K, 101 kPa, x2 = 0.3968	1.368 ± 0.035
298.15 K, 101 kPa, x2 = 0.5018	1.281 ± 0.033
298.15 K, 101 kPa, x2 = 0.6021	1.204 ± 0.031
298.15 K, 101 kPa, x2 = 0.7032	1.146 ± 0.03
298.15 K, 101 kPa, x2 = 0.8267	1.068 ± 0.028
298.15 K, 101 kPa, x2 = 0.9043	1.045 ± 0.027
298.15 K, 101.33 kPa, x2 = 0.0982	1.703 ± 0.089
298.15 K, 101.33 kPa, x2 = 0.1946	1.613 ± 0.084
298.15 K, 101.33 kPa, x2 = 0.2868	1.468 ± 0.077
298.15 K, 101.33 kPa, x2 = 0.3929	1.371 ± 0.072
298.15 K, 101.33 kPa, x2 = 0.5767	1.294 ± 0.068
298.15 K, 101.33 kPa, x2 = 0.6086	1.201 ± 0.063
298.15 K, 101.33 kPa, x2 = 0.7073	1.153 ± 0.06
298.15 K, 101.33 kPa, x2 = 0.8086	1.074 ± 0.056
298.15 K, 101.33 kPa, x2 = 0.9081	1.048 ± 0.055
303.15 K, 101 kPa, x2 = 0.0972	1.555 ± 0.014
303.15 K, 101 kPa, x2 = 0.1	1.43 ± 0.037
303.15 K, 101 kPa, x2 = 0.1829	1.437 ± 0.013
303.15 K, 101 kPa, x2 = 0.2022	1.443 ± 0.037
303.15 K, 101 kPa, x2 = 0.2642	1.341 ± 0.012
303.15 K, 101 kPa, x2 = 0.3039	1.339 ± 0.035
303.15 K, 101 kPa, x2 = 0.3916	1.224 ± 0.011
303.15 K, 101 kPa, x2 = 0.3968	1.263 ± 0.033
303.15 K, 101 kPa, x2 = 0.4829	1.147 ± 0.011
303.15 K, 101 kPa, x2 = 0.5018	1.186 ± 0.031
303.15 K, 101 kPa, x2 = 0.583	1.08 ± 0.01
303.15 K, 101 kPa, x2 = 0.6021	1.115 ± 0.029
303.15 K, 101 kPa, x2 = 0.6854	1.022 ± 0.0096
303.15 K, 101 kPa, x2 = 0.7032	1.064 ± 0.028
303.15 K, 101 kPa, x2 = 0.7963	0.981 ± 0.0093
303.15 K, 101 kPa, x2 = 0.8267	0.9924 ± 0.026
303.15 K, 101 kPa, x2 = 0.8977	0.96 ± 0.0091
303.15 K, 101 kPa, x2 = 0.9043	0.9678 ± 0.025
308.15 K, 101 kPa, x2 = 0.1	1.317 ± 0.034
308.15 K, 101 kPa, x2 = 0.2022	1.326 ± 0.034
308.15 K, 101 kPa, x2 = 0.3039	1.236 ± 0.032
308.15 K, 101 kPa, x2 = 0.3968	1.165 ± 0.03
308.15 K, 101 kPa, x2 = 0.5018	1.096 ± 0.028
308.15 K, 101 kPa, x2 = 0.6021	1.031 ± 0.027
308.15 K, 101 kPa, x2 = 0.7032	0.9838 ± 0.025
308.15 K, 101 kPa, x2 = 0.8267	0.92 ± 0.024
308.15 K, 101 kPa, x2 = 0.9043	0.8978 ± 0.023
313.15 K, 101 kPa, x2 = 0.1	1.217 ± 0.031
313.15 K, 101 kPa, x2 = 0.2022	1.224 ± 0.032
313.15 K, 101 kPa, x2 = 0.3039	1.142 ± 0.03
313.15 K, 101 kPa, x2 = 0.3968	1.078 ± 0.028
313.15 K, 101 kPa, x2 = 0.5018	1.013 ± 0.026
313.15 K, 101 kPa, x2 = 0.6021	0.9572 ± 0.025
313.15 K, 101 kPa, x2 = 0.7032	0.9119 ± 0.024
313.15 K, 101 kPa, x2 = 0.8267	0.8533 ± 0.022
313.15 K, 101 kPa, x2 = 0.9043	0.8343 ± 0.022
